{"source": "patent US11384114B2", "about": "“Polymorphic forms of an oxysterol and methods of making them” (Warsaw Orthopedic, Inc., priority 2016, dated 2022)", "type_in_all_cases": "physicochemical", "key": {"[1]": {"assay": "Karl-Fisher (KF) water determination of isolated solid", "conditions": "for KF (water content determined by Karl Fischer water determination method): OXY133 polymorph sample, processing point and temperature differ per item of Table 15; for KF (Wt %) water content: solid isolated from acetone/water slurry at 0-25° C.", "description": "Further, Table 15 below is a list of OXY133 polymorphs Forms A, B, C, D, E, F, G, H and I identified by a high performance liquid chromatography (HPLC) followed by charged aerosol detector (CAD) method. Table 15 also lists the starting products, the solvent system including solvent and anti-solvent, the temperature at which a polymorph was formed, the water content of the polymorph as determined by the Karl-Fisher (KF) method of water determination, and where available, the yield and purity of the resulting polymorph."}, "[2]": {"assay": "Crystal form stability on vacuum oven drying", "conditions": "for Crystal Form (XRPD): solid after drying at 20, 35 or 50 C, solvent system differs per item", "description": "2.0 g anhydrous OXY133 was added to 10 mL isopropanol in a 100 mL polyblock reactor. The mixture was heated to 30° C. and then stirred at 30° C. for 45 minutes until the solids were dissolved completely. Acceptable heating temperatures ranged from 25° C. to 35° C. A polish filtration step can be added after dissolving the anhydrous OXY133. The mixture of anhydrous OXY133 and isopropanol was then cooled to 5° C. 20 mL of water was then added to the cooled mixture over 120 minutes at 5° C., resulting in the formation of a precipitate approximately one third of the way through the addition of water. The water addition can also be done in temperature ranges from about 0° C. to about 20° C. with no significant effect on the crystal structure. The resulting mixture of OXY133, isopropanol and water was then stirred at 5° C. for 18 hours. However, it is recommended that the resulting mixture could be mixed for at least 2 hours at 5° C. after the water addition was complete to ensure that all solids were precipitated from the solution. A white solid was collected by rapidly filtering the mixture and then washing the solid with 2.0 mL of an isopropanol:water mixture in a ratio of 1:2 v/v. The filtered and washed solids were then dried in a vacuum oven at 20° C. Acceptable temperatures for drying can range from about 20° C. to about 30° C."}, "DSC/TGA water loss": {"assay": "DSC/TGA water loss", "description": "Differential scanning calorimetry (DSC) and thermo-gravimetric analysis (TGA) were also collected for some of the OXY133 polymorphs. The equipment utilized to collect the DSC/TGA data was a Mettler Toledo DSC 2 equipped with an aluminum 40 μL crimped pan with a pin hole and the ramp rate was 10° C./min. DSC/TGA thermograms identifying several OXY133 polymorphs are illustrated in FIGS. 20-25."}, "[3]": {"assay": "Stability of the crystal form on stirring in the acetone/water solvent system", "conditions": "slurry stirred in acetone/water (Form C at about 20° C.; Form F at about 20° C. or about 5° C.)"}, "[4]": {"conditions": "isolated solid, lot 2891-28-1, prepared from anhydrous OXY133 in isopropanol/water at 5° C. (Example 6)"}}, "note": "Where “and” joins values, the source holds several entries; their conditions need not be identical. Identical values can stand only once.", "data": [{"smiles": "CCCCCC[C@](C)(O)[C@H]1CC[C@H]2[C@@H]3C[C@H](O)[C@H]4C[C@@H](O)CC[C@]4(C)[C@H]3CC[C@@]21C", "note": "[Form 2891-8-3]", "values": [{"measurement": "KF (water content determined by Karl Fischer water determination method)", "setting": "[1]", "result": 3.25, "unit": "%"}, {"measurement": "KF (Wt %) water content", "setting": "[1]", "result": 3.25, "unit": "Wt %"}, {"measurement": "Crystal Form (XRPD)", "setting": "[2]", "result": "Form A"}]}, {"smiles": "CCCCCC[C@](C)(O)[C@H]1CC[C@H]2[C@@H]3C[C@H](O)[C@H]4C[C@@H](O)CC[C@]4(C)[C@H]3CC[C@@]21C", "note": "[Form 2891-9-3]", "values": [{"measurement": "KF (water content determined by Karl Fischer water determination method)", "setting": "[1]", "result": 3.83, "unit": "%"}, {"measurement": "KF (Wt %) water content", "setting": "[1]", "result": 3.83, "unit": "Wt %"}, {"measurement": "Crystal Form (XRPD)", "setting": "[2]", "result": "Form A"}]}, {"smiles": "CCCCCC[C@](C)(O)[C@H]1CC[C@H]2[C@@H]3C[C@H](O)[C@H]4C[C@@H](O)CC[C@]4(C)[C@H]3CC[C@@]21C", "note": "[Form 2891-10-3]", "values": [{"measurement": "KF (water content determined by Karl Fischer water determination method)", "setting": "[1]", "result": 4.02, "unit": "%"}, {"measurement": "KF (Wt %) water content", "setting": "[1]", "result": 4.02, "unit": "Wt %"}, {"measurement": "Crystal Form (XRPD)", "setting": "[2]", "result": "Form A"}]}, {"smiles": "CCCCCC[C@](C)(O)[C@H]1CC[C@H]2[C@@H]3C[C@H](O)[C@H]4C[C@@H](O)CC[C@]4(C)[C@H]3CC[C@@]21C.O", "note": "[Form A, (3S,5S,6S,8R,9S,10R,13S,14S,17S)-17-((S)-2-hydroxyoctan-2-yl)-10,13-dimethylhexadecahydro-1H-cyclopenta[a]phenanthrene-3,6-diol, monohydrate]", "values": [{"measurement": "DSC/TGA", "setting": "DSC/TGA water loss; [4]", "result": 4.76, "unit": "%"}, {"measurement": "water loss (DSC/TGA)", "setting": "DSC/TGA water loss; ramp rate 10° C./min, listed as OXY133 monohydrate, monohydrate", "result": "4.57% and 4.00%"}, {"measurement": "KF", "setting": "[1]; [4]", "result": 4.07, "unit": "%"}, {"measurement": "crystal form change on drying", "setting": "[2]; drying at temperatures above about 20° C. to about 30° C.", "result": "slow conversion of OXY133 monohydrate to a different, unknown crystal form"}]}, {"smiles": "CCCCCC[C@](C)(O)[C@H]1CC[C@H]2[C@@H]3C[C@H](O)[C@H]4C[C@@H](O)CC[C@]4(C)[C@H]3CC[C@@]21C", "note": "[Form C]", "values": [{"measurement": "stability of crystal form in acetone/water solvent system", "setting": "[3]", "result": "fairly stable"}]}, {"smiles": "CCCCCC[C@](C)(O)[C@H]1CC[C@H]2[C@@H]3C[C@H](O)[C@H]4C[C@@H](O)CC[C@]4(C)[C@H]3CC[C@@]21C", "note": "[Form F]", "values": [{"measurement": "stability of crystal form in acetone/water solvent system", "setting": "[3]", "result": "somewhat stable"}]}]}
